According to patent publication US7138411B2, “Substituted benzopyran derivatives for the treatment of inflammation” (G.D. Searle & Co., priority 1997, dated 2006):

How the values were obtained:
COX-2 [1] = molecular target: T1, COX-2 (UniProt P35354); experiment: Fast assay for COX-2 activity (PGE2 ELISA); format: biochemical, human or murine; conditions: fast assay: 10 min pre-incubation at 25° C., reaction stopped after two minutes, pH 7.5
T1 sequence (P35354 1-604): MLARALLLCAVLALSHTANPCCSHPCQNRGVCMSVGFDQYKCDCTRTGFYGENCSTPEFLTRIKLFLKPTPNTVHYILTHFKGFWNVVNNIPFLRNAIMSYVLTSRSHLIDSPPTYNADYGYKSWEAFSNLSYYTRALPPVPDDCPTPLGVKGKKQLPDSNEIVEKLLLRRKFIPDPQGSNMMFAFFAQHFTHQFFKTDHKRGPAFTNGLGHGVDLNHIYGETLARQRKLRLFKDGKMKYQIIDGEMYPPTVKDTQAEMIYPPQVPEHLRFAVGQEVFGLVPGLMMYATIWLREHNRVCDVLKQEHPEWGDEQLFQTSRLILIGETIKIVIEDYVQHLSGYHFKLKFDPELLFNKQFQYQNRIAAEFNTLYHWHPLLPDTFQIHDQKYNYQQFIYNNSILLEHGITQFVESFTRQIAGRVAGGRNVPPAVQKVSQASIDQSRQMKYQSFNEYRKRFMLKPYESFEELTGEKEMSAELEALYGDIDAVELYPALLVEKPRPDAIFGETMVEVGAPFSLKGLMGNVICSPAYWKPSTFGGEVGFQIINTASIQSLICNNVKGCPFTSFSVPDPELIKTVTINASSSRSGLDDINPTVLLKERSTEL

COX-1 = COX-1 (UniProt P23219); experiment: Assay for COX-1 activity (PGE2 ELISA); conditions: read-out: COX-1 IC50; 10–20 minutes pre-incubation, reaction stopped after ten minutes, pH 8.0
COX-2 [2] = molecular target: T1, COX-2; experiment: Assay for COX-2 activity (PGE2 ELISA); conditions: read-out: COX-2 IC50; 10–20 minutes pre-incubation, reaction stopped after ten minutes, pH 8.0

| SMILES | IC50 (COX-2 [1]) [µM] | melting point [°C] | IC50 (COX-1) [µM] | IC50 (COX-2 [2]) [µM] |
| --- | --- | --- | --- | --- |
| O=C(O)C1=Cc2cc(Cl)c(Oc3ccc([N+](=O)[O-])cc3)cc2OC1C(F)(F)F (centres unmarked) [Example 203, 6-Chloro-7-(4-nitrophenoxy)-2-(trifluoromethyl)-2H-1-benzopyran-3-carboxylic acid] | < 0.1 | 246.4 to 248.3 | – | – |
| O=C(O)C1=Cc2cccc(Cl)c2OC1C(F)(F)F (centres unmarked) [Example 14, 8-Chloro-2-trifluoromethyl-2H-1-benzopyran-3-carboxylic acid] | > 100 | 224.5 to 225.6 | – | – |
| O=C(O)C1=Cc2cc(SC(F)(F)F)ccc2OC1C(F)(F)F (centres unmarked) [Example 91, 2-(Trifluoromethyl)-6-[(trifluoromethyl)thio]-2H-1-benzopyran-3-carboxylic acid] | < 0.1 | – | 36 | 0.2 |
| O=C(O)C1=Cc2c(Cl)cc(Cl)cc2OC1C(F)(F)F (centres unmarked) [Example 18, 5,7-Dichloro-2-trifluoromethyl-2H-1-benzopyran-3-carboxylic acid] | 12 | 190.1 to 191.2 | – | – |
| Cc1cc2c(cc1Cl)C=C(C(=O)O)C(C(F)(F)F)O2 (centres unmarked) [Example 6, 6-Chloro-7-methyl-2-trifluoromethyl-2H-1-benzopyran-3-carboxylic acid] | < 0.1 | 207.5 to 209.3 | – | – |
| CC(C)(C)NS(=O)(=O)c1ccc2c(c1)C=C(C(=O)O)C(C(F)(F)F)O2 (centres unmarked) [Example 54, 6-[(1,1-Dimethylethyl)aminosulfonyl]-2-trifluoromethyl-2H-1-benzopyran-3-carboxylic acid] | 19 | 229.3 to 233.5 | – | – |
| O=C(O)C1=Cc2cc(Cl)c(Oc3cccc(Cl)n3)cc2OC1C(F)(F)F (centres unmarked) [Example 199, 6-Chloro-7-[(6-chloro-2-pyridinyl)oxy]-2-(trifluoromethyl)-2H-1-benzopyran-3-carboxylic acid] | < 0.1 | 226.4 to 227.4 | – | – |
| CNS(=O)(=O)c1ccc2c(c1)C=C(C(=O)O)C(C(F)(F)F)O2 (centres unmarked) [Example 52, 6-(Methylamino)sulfonyl-2-trifluoromethyl-2H-1-benzopyran-3-carboxylic acid] | 20 | 207.6 to 208.6 | – | – |
| COc1ccc(Oc2ccc3c(c2)C=C(C(=O)O)C(C(F)(F)F)O3)cc1 (centres unmarked) [Example 7, 6-(4-Methoxyphenoxy)-2-(trifluoromethyl)-2H-1-benzopyran-3-carboxylic acid] | – | 181.7 to 182.9 | 1 | < 0.1 |
| CCc1cc2c(cc1Cl)C=C(C(=O)O)C(C(F)(F)F)O2 (centres unmarked) [Example 27, 6-Chloro-7-ethyl-2-trifluoromethyl-2H-1-benzopyran-3-carboxylic acid] | 67 | 170.7 to 172.1 | – | – |
| CCc1cc(Cl)cc2c1OC(C(F)(F)F)C(C(=O)O)=C2 (centres unmarked) [Example 29, 6-Chloro-8-ethyl-2-trifluoromethyl-2H-1-benzopyran-3-carboxylic acid] | < 0.1 | 197.2 to 199.1 | – | – |
| O=C(O)C1=Cc2cc(C(=O)Cc3ccccc3)ccc2OC1C(F)(F)F (centres unmarked) [Example 59, 6-Phenylacetyl-2-trifluoromethyl-2H-1-benzopyran-3-carboxylic acid] | 43 | 159 to 164 | – | – |
| O=C(O)C1=Cc2cc(Cl)ccc2O[C@@H]1C(F)(F)F [Example 66, (S)-6-Chloro-2-trifluoromethyl-2H-1-benzopyran-3-carboxylic acid] | 82 | – | 16.9 | < 0.1 |
| CN(C)S(=O)(=O)c1ccc2c(c1)C=C(C(=O)O)C(C(F)(F)F)O2 (centres unmarked) [Example 50, 6-[(Dimethylamino)sulfonyl]-2-trifluoromethyl-2H-1-benzopyran-3-carboxylic acid] | 79 | 201.2 to 202.5 | – | – |
| O=C(O)C1=Cc2cc(S(=O)(=O)NCc3ccccc3)cc(Cl)c2OC1C(F)(F)F (centres unmarked) [Example 57, 8-Chloro-6-[[(phonylmethyl)amino]sulfonyl]-2-trifluoromethyl-2H-1-benzopyran-3-carboxylic acid] | 21 | – | > 100 | 21 |
| O=C(O)C1=Cc2cc(Cl)c(Oc3ccccn3)cc2OC1C(F)(F)F (centres unmarked) [Example 202, 6-Chloro-7-[2-pyridinyloxy]-2-(trifluoromethyl)-2H-1-benzopyran-3-carboxylic acid] | – | 234.2 to 235.4 | 42.8 | < 0.1 |
| O=C(O)C1=Cc2cc(F)cc(Br)c2OC1C(F)(F)F (centres unmarked) [Example 43, 8-Bromo-6-fluoro-2-trifluoromethyl-2H-1-benzopyran-3-carboxylic acid] | 99 | > 300 | – | – |
| O=C(O)C1=Cc2cc([N+](=O)[O-])ccc2OC1C(F)(F)F (centres unmarked) [Example 37, 6-Nitro-2-trifluoromethyl-2H-1-benzopyran-3-carboxylic acid] | – | 187 to 189 | – | – |
| N#Cc1ccc2c(c1)C=C(C(=O)O)C(C(F)(F)F)N2 (centres unmarked) [Example 164, 6-Cyano-1,2-dihydro-2-(trifluoromethyl)-3-quinolinecarboxylic acid] | – | 238 to 240 | – | – |
| CC(C)c1cccc2c1OC(C(F)(F)F)C(C(=O)O)=C2 (centres unmarked) [Example 102, 8-(1-Methylethyl)-2-trifluoromethyl-2H-1-benzopyran-3-carboxylic acid] | – | 210.5 to 211.5 | – | – |
| Cc1ccc2c(c1)C=C(C(=O)O)C(C(F)(F)F)S2 (centres unmarked) [Example 145, 6-Methyl-2-(trifluoromethyl)-2H-1-benzothiopyran-3-carboxylic acid] | – | 180.8 to 184.2 | – | – |
| O=C(O)C1=Cc2ccc(Br)cc2OC1C(F)(F)F (centres unmarked) [Example 5, 7-Bromo-2-trifluoromethyl-2H-1-benzopyran-3-carboxylic acid] | – | 198.4 to 199.5 | – | – |

Other lines, results leading:

| IC50 (COX-2 [1]) [µM] | melting point [°C] | IC50 (COX-1) [µM] | IC50 (COX-2 [2]) [µM] | SMILES |
| --- | --- | --- | --- | --- |
| 0.3 | 189.6 to 190.9 | – | – | O=C(O)C1=Cc2cc(Br)ccc2OC1C(F)(F)F (centres unmarked) [Example 13, 6-Bromo-2-trifluoromethyl-2H-1-benzopyran-3-carboxylic acid] |
| – | 204.5 to 206.9 | 43 | – | COc1cc(Cl)c2c(c1)C=C(C(=O)O)C(C(F)(F)F)O2 (centres unmarked) [Example 40, 8-Chloro-6-methoxy-2-trifluoromethyl-2H-1-benzopyran-3-carboxylic acid] |
| > 100 | 158.3 to 159.7 | – | – | CC(C)c1ccc2c(c1)OC(C(F)(F)F)C(C(=O)O)=C2 (centres unmarked) [Example 25, 7-(1-Methylethyl)-2-trifluoromethyl-2H-1-benzopyran-3-carboxylic acid] |
| 0.2 | 269.8 to 270.8 | – | 0.3 | O=C(O)C1=Cc2cc(C(=O)c3ccccc3)ccc2OC1C(F)(F)F (centres unmarked) [Example 96, 6-Benzoyl-2-(trifluoromethyl)-2H-1-benzopyran-3-carboxylic acid] |
| < 0.1 | – | 10 | < 0.1 | Cc1cc2c(cc1Cl)C=C(C(=O)O)C(C(F)(F)F)S2 (centres unmarked) [Example 152, 6-Chloro-7-methyl-2-(trifluoromethyl)-2H-1-benzothiopyran-3-carboxylic acid] |
| > 100 | 245.2 to 247.3 | – | – | Cc1ccc2c(c1C)OC(C(F)(F)F)C(C(=O)O)=C2 (centres unmarked) [Example 22, 7,8-Dimethyl-2-trifluoromethyl-2H-1-benzopyran-3-carboxylic acid] |
| 1.4 | 244.7 to 249.8 | – | – | O=C(O)C1=Cc2c(ccc3ccccc23)OC1C(F)(F)F (centres unmarked) [Example 63] |
| > 100 | 209.4 to 211.7 | – | – | O=C(O)C1=Cc2ccc(-c3ccccc3)cc2OC1C(F)(F)F (centres unmarked) [Example 26, 7-Phenyl-2-trifluoromethyl-2H-1-benzopyran-3-carboxylic acid] |
| 36 | – | – | – | CC(C)c1cc(Cl)cc2c1OC(C(F)(F)F)C(C(=O)O)=C2 (centres unmarked) [Example 103, 6-Chloro-8-(1-methylethyl)-2-trifluoramethyl-2H-1-benzopyran-3-carboxylic acid] |
| – | – | 6.7 | – | O=C(O)C1=Cc2cc(OC(F)(F)F)ccc2O[C@@H]1C(F)(F)F [Example 67, (S)-6-Trifluoromethoxy-2-trifluoromethyl-2H-1-benzopyran-3-carboxylic acid] |
| – | – | 5.6 | – | O=C(O)C1=Cc2cc(C(F)(F)F)ccc2OC1C(F)(F)F (centres unmarked) [Example 82, 2,6-Bis(trifluoromethyl)-2H-1-benzopyran-3-carboxylic acid] |
| 11 | 171.6 to 175 | – | – | O=C(O)C1=Cc2cccc(-c3ccccc3)c2OC1C(F)(F)F (centres unmarked) [Example 21, 8-Phenyl-2-trifluoromethyl-2H-1-benzopyran-3-carboxylic acid] |
| – | 225 to 228 | – | – | O=C(O)C1=Cc2cc(Cl)ccc2N(Cc2ccc([N+](=O)[O-])cc2)C1C(F)(F)F (centres unmarked) [Example 170, 6-Chloro-1,2-dihydro-1-[(4-nitrophenyl)methyl]-2-(trifluoromethyl)-3-quinolinecarboxylic acid] |
